Test results as given in PMC5522529, “Mechanisms of Paradoxical Activation of AMPK by the Kinase Inhibitors SU6656 and Sorafenib” (Cell Chemical Biology, 2017).

Legend:
[1] = biological target: T1, LKB1 (Homo sapiens, UniProt Q15831); assay: LKB1 assay using LKBtide peptide substrate; type: biochemical; settings: alternative peptide substrate (LKBtide)
T1 construct: made in house; host or cells: Sf9 cells
Protocol: We next used unphosphorylated α2-KD and tested the effect of SU6656 on its activation and phosphorylation by LKB1. […] There was no effect of SU6656 when LKB1 was assayed using an alternative peptide substrate (Figure S3), confirming that it acts by binding to AMPK rather than to LKB1. The half-maximal effect of SU6656 on α2-KD activation was at 0.20 ± 0.02 μM, close to the IC50 for inhibition of catalytic activity (0.22 ± 0.02 μM).
Endogenous AMPK was immunoprecipitated using the specified antibodies (for total AMPK, an equal mixture of anti-α1 and –α2 antibodies) and assayed at 200 μM ATP ([Hardie et al., 2000], [Towler et al., 2008]) using the AMARA peptide ([Dale et al., 1995]) as substrate, except for assays of allosteric activation by AMP (Figure 5A) where the SAMS peptide was used as substrate with 2 mM ATP ([Gowans et al., 2013]). The AMPK-related kinases SIK1, SIK2, SIK3, SNARK, MARK2/3 and MARK4 were immunoprecipitated and assayed as previously described ([Lizcano et al., 2004]) in lysates of Hela cells stably expressing LKB1 ([Fogarty et al., 2010]). LKB1 was assayed using the LKBtide peptide as substrate ([Sakamoto et al., 2004]).
LKB1 was assayed using the LKBtide peptide as substrate as
described in the Star Methods section.

[2] = biological target: T2, AMPK-γ1 complexes (WT) (Homo sapiens, UniProt P54619); assay: Activation by LKB1 of FLAG-AMPK-γ1 (WT) complexes precipitated from HeLa cells; type: biochemical; settings: AMP 200 μM or SU6656 3 μM, 10 min
T2 construct: Plasmid encoding full-length human AMPK-γ1; expressed in transfected cells; host or cells: HeLa
Source text: (B) Effect of ATP concentration on kinase activity of α2-KD in the presence of increasing concentrations of SU6656. Results (mean, n = 2) were fitted to the equation Y= (Vmax × X)/(Km × (1 + I/Ki) + X), where Y is the activity, X is the ATP concentration, I is the concentration of SU6656, and Ki is the inhibitory constant for SU6656. […] (D and E) Effect of increasing concentrations of SU6656 on activity (D) and Thr172 phosphorylation (E) induced by LKB1 with unphosphorylated α2-KD (WT/AT mutant). Results in (D) are mean ± SEM (n = 3); and were fitted to same equation as Figure 4C. […] See also Figure S3. (F) Effect of AMP (2 mM) and SU6656 on inactivation of AMPK by PP2Cα in the presence of 5 mM ATP. […] (G) Effects of AMP or SU6656 on activation (top) and Thr172 phosphorylation (bottom) by LKB1 of AMPK-γ1 complexes expressed in HeLa cells. FLAG-tagged AMPK-γ1, either wild-type (WT) or R299G mutant (RG), was expressed in HeLa cells and AMPK complexes precipitated using anti-FLAG antibody. The complexes (which have low basal phosphorylation due to lack of LKB1 in HeLa cells) were incubated with or without a limiting amount of LKB1, AMP (200 μM) or SU6656 (3 μM) for 10 min and AMPK activity determined. […]

[3] = system: Erk1/Erk2; assay: Erk1/Erk2 phosphorylation in HEK293 cells (western blot); type: cell-based, human; settings: SU6656 100 μM, PP2 100 nM
[4] = system: Erk1/2; assay: Erk1/2 phosphorylation in SYF cells; type: cell-based, mouse; settings: SU6656 100 μM, PP2 100 nM
[5] = system: AMPK; assay: AMPK activation in HeLa cells transfected with GFP-LKB1 WT, FF or FFF mutants; type: cell-based, human; settings: HeLa cells expressing GFP-LKB1 WT, not with GFP control
Protocol: Top: AMPK activity (mean ± SEM, n = 4); bottom: western blots showing phosphorylation of Thr172 on AMPK, and of ERK1/2, in cells treated with DMSO (control), SU6656 (100 μM), or PP2 (100 nM) (n = 2). (B) As (A), but in SYF cells. (C) HeLa cells were transfected with DNAs encoding GFP alone, or GFP fused to WT, Y261F/Y365F (FF), or Y36F/Y261F/Y365F (FFF) mutants of LKB1; cells were treated with increasing concentrations of SU6656 for 1 hr and AMPK activity determined (mean ± SEM, n = 4). See also Figure S1. (D) HEK293 cells were transfected with DNAs encoding FLAG-tagged AMPK-α2 with or without a Y436F mutation. Cells were incubated with DMSO (control), 100 μM SU6656, 10 mM phenformin, or 10 μM A23187 for 1 hr; AMPK complexes were immunoprecipitated using anti-FLAG antibody and assayed. The top panels show kinase activities (mean ± SD, n = 3); the bottom panels show blots from the same experiment (n = 2). In all panels, asterisks indicate significant differences from DMSO controls; in (D), there were no significant differences between the WT and Y463F mutant. **p < 0.01, ****p < 0.0001.
We next transiently transfected DNAs encoding GFP, or GFP-tagged wild-type (WT), Y261F/Y365F (FF), or Y36F/Y261F/Y365F (FFF) mutants of LKB1 into HeLa cells, which lack endogenous LKB1.

[6] = system: mice; parameters: method as in Yamada et al., 2010; settings: ref Yamada et al., 2010; cited from earlier work
[7] = system: AMPK; parameters: method as in Bain et al., 2007; settings: ref Bain et al., 2007; cited from earlier work

T1 sequence (Q15831 whole entry): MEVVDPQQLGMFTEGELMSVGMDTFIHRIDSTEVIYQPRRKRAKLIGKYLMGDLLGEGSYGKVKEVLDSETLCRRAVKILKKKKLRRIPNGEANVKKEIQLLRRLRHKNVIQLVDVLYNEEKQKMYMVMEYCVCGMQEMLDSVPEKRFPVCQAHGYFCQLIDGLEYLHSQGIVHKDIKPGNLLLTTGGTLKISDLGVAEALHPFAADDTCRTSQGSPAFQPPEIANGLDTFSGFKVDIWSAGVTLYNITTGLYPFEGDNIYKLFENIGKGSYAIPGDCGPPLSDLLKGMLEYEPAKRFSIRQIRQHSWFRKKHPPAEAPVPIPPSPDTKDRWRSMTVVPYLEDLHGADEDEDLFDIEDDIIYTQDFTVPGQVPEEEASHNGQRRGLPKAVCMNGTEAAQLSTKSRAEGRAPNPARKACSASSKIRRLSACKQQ
T1 sequence (Q7RTN6 whole entry partner): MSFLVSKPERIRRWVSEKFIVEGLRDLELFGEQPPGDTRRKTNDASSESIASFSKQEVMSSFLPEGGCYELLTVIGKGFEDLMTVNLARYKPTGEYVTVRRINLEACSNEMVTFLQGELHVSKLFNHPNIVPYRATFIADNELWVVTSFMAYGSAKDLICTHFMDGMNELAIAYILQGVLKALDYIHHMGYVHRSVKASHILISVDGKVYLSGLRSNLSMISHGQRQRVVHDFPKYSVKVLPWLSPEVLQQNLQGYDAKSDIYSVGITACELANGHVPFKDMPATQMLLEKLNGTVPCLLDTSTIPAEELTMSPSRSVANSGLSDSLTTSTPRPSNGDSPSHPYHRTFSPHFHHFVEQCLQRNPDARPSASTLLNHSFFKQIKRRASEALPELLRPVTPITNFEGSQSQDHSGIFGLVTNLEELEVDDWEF
T1 sequence (Q9Y376 whole entry partner): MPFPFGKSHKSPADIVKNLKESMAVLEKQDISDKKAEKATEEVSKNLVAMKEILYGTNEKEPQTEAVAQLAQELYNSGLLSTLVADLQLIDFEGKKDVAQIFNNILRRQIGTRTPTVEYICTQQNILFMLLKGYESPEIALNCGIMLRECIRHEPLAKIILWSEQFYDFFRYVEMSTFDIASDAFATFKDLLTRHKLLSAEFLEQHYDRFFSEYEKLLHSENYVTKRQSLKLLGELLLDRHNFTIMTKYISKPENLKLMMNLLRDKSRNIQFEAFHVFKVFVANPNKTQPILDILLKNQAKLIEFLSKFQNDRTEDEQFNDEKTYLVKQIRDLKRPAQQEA
T2 sequence (P54619 whole entry, one chain of several): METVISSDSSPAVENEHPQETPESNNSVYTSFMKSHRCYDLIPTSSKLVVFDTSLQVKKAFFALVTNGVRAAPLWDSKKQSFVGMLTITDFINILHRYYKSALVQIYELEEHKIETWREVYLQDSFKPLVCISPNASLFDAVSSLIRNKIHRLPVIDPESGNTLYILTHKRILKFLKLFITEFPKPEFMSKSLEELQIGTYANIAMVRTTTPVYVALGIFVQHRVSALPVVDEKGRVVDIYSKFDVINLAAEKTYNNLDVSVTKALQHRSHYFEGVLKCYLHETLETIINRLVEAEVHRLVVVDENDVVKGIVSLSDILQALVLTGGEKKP

effect on LKB1 activity [1]: no effect
SMILES: CN(C)S(=O)(=O)c1ccc2c(c1)/C(=C/c1cc3c([nH]1)CCCC3)C(=O)N2 [SU6656]
activation and Thr172 phosphorylation by LKB1 [2]: promoted activation and increased Thr172 phosphorylation
Erk1/Erk2 phosphorylation [3]: reduced phosphorylation of Erk1/Erk2
Erk1/2 phosphorylation [4]: inhibited Erk1/2 phosphorylation
AMPK activation and Thr172 phosphorylation [5]: equally in cells expressing the WT, FF, or FFF mutants
fatty acid oxidation [6]: increased fatty acid oxidation
inhibition of AMPK relative to Src [7]: inhibits AMPK as effectively as Src
